Data published in patent US11046647B2, “Activators of the unfolded protein response” (The Board of Trustees of the University of Illinois, priority 2018, dated 2021).

How the values were obtained:
T47D cells = details: 100, 500 and 1,000 nM; 24 hours; n=1
Method: One such change is loss of plasma membrane polarity. This is monitored using Annexin V. Dying cells also take up the dye propidium iodide. Propidium iodide (PI) fluoresces when it is intercalated into DNA. These assays monitor cells at specific stages of cell death.
FLOW CYTOMETRY (FITC) ASSAYS: Cells were seeded in 12-well plates, 75,000 cells/well, and allowed to adhere overnight. The next day, the indicated concentrations of raptinal (positive control), (−)-105, (±)-105, and (+)-105 were added and allowed to incubate at 37° C. for 24 hours (Final Volume: 1 ml, 0.1% DMSO). After incubation, cells were harvested and resuspended in 350 μl of cold Annexin binding buffer (10 mM HEPES, 140 mM NaCl, 2.5 mM CaCl2, pH 7.4) premixed with Annexin V-FITC and PI dyes. Samples were analyzed on a BD Biosciences LSRII flow cytometer, and data analysis was performed using FSC Express Version 5-6. Cell death was assessed relative to a DMSO treated control.
T47D, human breast cancer cells were plated at 75,000 cells/well. The next day, DMSO vehicle, 10 μM raptinal (control for 100% cell death), or 0, 50, 100 500 and 1,000 nM of BHPI or (±)-105, or 1,000 nM ICI/fulvestrant or 1,000 nM OHT was added. After 24 hours viable cells were determined by FACS using annexin V-FITC and propidium iodide dyes. (n=3 independent experiments ±SEM).
75,000 ERα positive T47D, human breast cancer cells, were plated/well. The next day, DMSO vehicle, 10 μM raptinal (control for 100% cell death), or 100 500 and 1,000 nM of (+)-105, or (−)-105 was added. After 24 hours viable cells were determined by FACS using annexin V-FITC and propidium iodide dyes. (n=1).

MCF-7 cells = assay: Trypan Blue exclusion cell death assay, MCF-7; assay type: cell-based, human; details: 24 hours
From the text: TRYPAN BLUE: For decades, viable cells have been measured by their ability to exclude the dye Trypan Blue. […] Dead cells, which have lost membrane integrity, take up the dye and are blue. Thus, the percentage of dead cells is the percentage of cells that are Trypan Blue positive out of the total cell population. Quantitative assessment of Trypan Blue uptake uses a cell counter from Fisher. Since the assay is instrument based, there is no observer bias in determining the percentage of Trypan Blue positive cells.
TRYPAN BLUE ASSAYS: Assays are performed on cells in 6 well plates: 300,000 cells are plated in each well of a 6-well plate in 3 ml of medium. After 24 hours, the DMSO vehicle or the indicated compound is added (in 1000th of the vol.) The cells incubated for an additional 24 hours, and then harvested in 0.25 ml of trypsin, followed after harvest by 0.75 ml of medium. […]
The Trypan Blue cell death assay was used to evaluate the ability of the active enantiomer of 105 (−) [(−)-105] to kill ERα positive MCF-7 and TYS-Luc, human breast cancer cells. […] After 24 hours, the cells were harvested, and the % dead cells was determined by automated Trypan Blue exclusion using the Countess II automated hemocytometer. Percentage of viable cells was calculated by doing 100-(Cell Death %). […]

[1] = Pharmacokinetics, brain penetration and tolerability in mice; assay type: in vivo, mouse
Method: FIG. 40. SERK-F6 is tolerated, reaches biologically relevant concentrations, and crosses the blood-brain barrier in vivo. a, Serum concentrations of SERK-F6 after indicated doses, route of administration, and time. Concentration was determined via LC/MS/MS analysis. […] AUC: Area Under the Curve, Cmax: maximum concentration, t1/2: half-life. c,d, Mice (CD-1) were treated with the indicated doses and times, then sacrificed and their serum and brains collected. Concentrations were determined via LC/MS/MS analysis. […] Treatment arms: vehicle daily (n=3), vehicle weekly (n=3), fulv. weekly (5 mg/mouse, s.c., n=6), SERK-F6 daily (10 or 40 mg/kg p.o.). Vehicle arms were combined. g, Mass of tumors harvested from mice. h, observed murine weight during this MCF-7 study (n=6). i,j, Tumor measurements for MCF-7 bilateral orthotopic model (n=4-5).
The pharmacokinetics of SERK-F6 was measured in mice (FIG. 40A-B).

SMILES: O=C1Nc2c(C(F)(F)F)cccc2C1(c1ccc(O)cc1)c1ccc(OC(F)(F)F)cc1 (single isomer, unassigned; (-)) [(−)-105, 3-(4-hydroxyphenyl)-3-(4-(trifluoromethoxy)phenyl)-7-(trifluoromethyl)indolin-2-one]
- activity of enantiomers (cell death) (T47D cells): active
- killing of MCF-7 cells, dose response (MCF-7 cells): superior to BHPI
- blood-brain barrier penetration ([1]; CD-1 mice, serum and brain LC/MS/MS): blood-brain barrier penetrant
- effect on ERα tissues as measured by circulating estradiol levels ([1]; long-term treatment): does not ablate ERα tissues
- tolerability in vivo ([1]; mouse, in vivo): well-tolerated
- concentrations reached in vivo ([1]; serum, LC/MS/MS): can achieve biologically relevant concentrations in-vivo
